pIC50: −log10 of the molar value. Activity calls are given as the source filed them. No cut-off for these calls is given here.
Assays:
Cytochrome P450 2D6 = Cytochrome P450 2D6 (Homo sapiens, UniProt P10635); assay: Inhibition of CYP2D6 in human liver microsomes incubated for 20 mins in presence of NADPH by LC/MS/MS analysis; format: ADME, Microsome
[1] = Inhibition of mitochondrial complex I (unknown origin) incubated for 15 mins by microplate reader analysis; set-up: species or system Homo sapiens
HCT-116 [2] = assay: Induction of mitochondrial dysfunction in human HCT-116 cells assessed as attenuation of basal oxygen consumption incubated for 24 hrs by Seahorse XFe24 analyzer; format: functional, cell-based; conditions: dose 2-10 nM
HCT-116 [3] = assay: Induction of mitochondrial dysfunction in human HCT-116 cells assessed as attenuation of ATP coupling oxygen consumption rate incubated for 24 hrs by Seahorse XFe24 analyzer; format: functional, cell-based; conditions: dose 2-10 nM
HCT-116 [4] = assay: Induction of ROS generation in human HCT-116 cells at 0.5 nM measured for 30 mins by DCFDA-staining based flow cytometry analysis; format: functional, cell-based
KG-1 = assay: Antitumor activity against human KG-1 cells xenografted in NOD-SCID mouse assessed as tumor growth inhibition at 5 mg/kg, ip qd administered 5 consecutive days per week for 24 days; format: functional; conditions: KG-1, 576 h, time 24 day, read-out: TGI
[5] = Acute toxicity in BALB/c mouse assessed as decrease in behavioral activity at 40 mg/kg, ip measured for 24 hrs; format: organism-based; conditions: in vivo
[6] = Acute toxicity in BALB/c mouse assessed as decrease in behavioral activity at 68 mg/kg, ip measured for 6 days; format: organism-based; conditions: in vivo, 144 h, time 6 day
[7] = Acute toxicity in BALB/c mouse assessed as effect on ALT level at 68 mg/kg, ip measured on day 14; format: organism-based; conditions: in vivo, 336 h, time 14 day
[8] = Acute toxicity in BALB/c mouse assessed as effect on AST level at 68 mg/kg, ip measured on day 14; format: organism-based; conditions: in vivo, 336 h, time 14 day
[9] = Acute toxicity in BALB/c mouse assessed as effect on BILT level at 68 mg/kg, ip measured on day 14; format: organism-based; conditions: in vivo, 336 h, time 14 day
[10] = Acute toxicity in BALB/c mouse assessed as effect on ALP level at 68 mg/kg, ip measured on day 14; format: organism-based; conditions: in vivo, 336 h, time 14 day
[11] = Acute toxicity in BALB/c mouse assessed as effect on WBC level at 68 mg/kg, ip measured on day 14; format: organism-based; conditions: in vivo, 336 h, time 14 day
[12] = Acute toxicity in BALB/c mouse assessed as effect on RBC level at 68 mg/kg, ip measured on day 14; format: organism-based, Erythrocyte; conditions: in vivo, 336 h, time 14 day
[13] = Acute toxicity in BALB/c mouse assessed as effect on PLT level at 68 mg/kg, ip measured on day 14; format: organism-based; conditions: in vivo, 336 h, time 14 day
[14] = Acute toxicity in BALB/c mouse assessed as heart damage at 40 to 68 mg/kg, ip measured on day 14 by H and E staining based analysis; format: organism-based; conditions: in vivo, 336 h, dose 40-68 mg/kg, time 14 day
[15] = Acute toxicity in BALB/c mouse assessed as lung damage at 40 to 68 mg/kg, ip measured on day 14 by H and E staining based analysis; format: organism-based; conditions: in vivo, 336 h, dose 40-68 mg/kg, time 14 day
[16] = Toxicity in NOD-SCID mouse xenografted with human KG-1 cells assessed as effect on ALB level at 5 mg/kg, ip qd administered 5 consecutive days per week for 24 days; format: organism-based; conditions: in vivo, 576 h, time 24 day
[17] = Toxicity in NOD-SCID mouse xenografted with human KG-1 cells assessed as effect on ALP level at 5 mg/kg, ip qd administered 5 consecutive days per week for 24 days; format: organism-based; conditions: in vivo, 576 h, time 24 day
[18] = Toxicity in NOD-SCID mouse xenografted with human KG-1 cells assessed as effect on AST level at 5 mg/kg, ip qd administered 5 consecutive days per week for 24 days; format: organism-based; conditions: in vivo, 576 h, time 24 day
[19] = Toxicity in NOD-SCID mouse xenografted with human KG-1 cells assessed as effect on BILT level at 5 mg/kg, ip qd administered 5 consecutive days per week for 24 days; format: organism-based; conditions: in vivo, 576 h, time 24 day
[20] = Toxicity in NOD-SCID mouse xenografted with human KG-1 cells assessed as effect on CREA level at 5 mg/kg, ip qd administered 5 consecutive days per week for 24 days; format: organism-based; conditions: in vivo, 576 h, time 24 day
[21] = Toxicity in NOD-SCID mouse xenografted with human KG-1 cells assessed as effect on GLB level at 5 mg/kg, ip qd administered 5 consecutive days per week for 24 days; format: organism-based; conditions: in vivo, 576 h, time 24 day
[22] = Toxicity in NOD-SCID mouse xenografted with human KG-1 cells assessed as effect on HDL level at 5 mg/kg, ip qd administered 5 consecutive days per week for 24 days; format: organism-based; conditions: in vivo, 576 h, time 24 day
[23] = Toxicity in NOD-SCID mouse xenografted with human KG-1 cells assessed as effect on TP level at 5 mg/kg, ip qd administered 5 consecutive days per week for 24 days; format: organism-based; conditions: in vivo, 576 h, time 24 day
[24] = Toxicity in NOD-SCID mouse xenografted with human KG-1 cells assessed as effect on UA level at 5 mg/kg, ip qd administered 5 consecutive days per week for 24 days; format: organism-based; conditions: in vivo, 576 h, time 24 day
[25] = Toxicity in NOD-SCID mouse xenografted with human KG-1 cells assessed as effect on WBC count at 5 mg/kg, ip qd administered 5 consecutive days per week for 24 days; format: organism-based; conditions: in vivo, 576 h, time 24 day
[26] = Toxicity in NOD-SCID mouse xenografted with human KG-1 cells assessed as effect on neutrophil count at 5 mg/kg, ip qd administered 5 consecutive days per week for 24 days; format: organism-based; conditions: in vivo, 576 h, time 24 day
[27] = Toxicity in NOD-SCID mouse xenografted with human KG-1 cells assessed as effect on HGB count at 5 mg/kg, ip qd administered 5 consecutive days per week for 24 days; format: organism-based; conditions: in vivo, 576 h, time 24 day
[28] = Toxicity in NOD-SCID mouse xenografted with human KG-1 cells assessed as effect on MCV level at 5 mg/kg, ip qd administered 5 consecutive days per week for 24 days; format: organism-based; conditions: in vivo, 576 h, time 24 day
[29] = Toxicity in NOD-SCID mouse xenografted with human KG-1 cells assessed as effect on RDV at 5 mg/kg, ip qd administered 5 consecutive days per week for 24 days; format: organism-based; conditions: in vivo, 576 h, time 24 day
[30] = Toxicity in NOD-SCID mouse xenografted with human KG-1 cells assessed as effect on PLT level at 5 mg/kg, ip qd administered 5 consecutive days per week for 24 days; format: organism-based; conditions: in vivo, 576 h, time 24 day
[31] = Toxicity in NOD-SCID mouse xenografted with human KG-1 cells assessed as effect on heart damage at 5 mg/kg, ip qd administered 5 consecutive days per week for 24 days by H and E staining based analysis; format: organism-based; conditions: in vivo, 576 h, time 24 day
[32] = Toxicity in NOD-SCID mouse xenografted with human KG-1 cells assessed as effect on liver damage at 5 mg/kg, ip qd administered 5 consecutive days per week for 24 days by H and E staining based analysis; format: organism-based; conditions: in vivo, 576 h, time 24 day
[33] = Toxicity in NOD-SCID mouse xenografted with human KG-1 cells assessed as effect on spleen damage at 5 mg/kg, ip qd administered 5 consecutive days per week for 24 days by H and E staining based analysis; format: organism-based; conditions: in vivo, 576 h, time 24 day
[34] = Apparent permeability across apical to basolateral side in human Caco-2 cells incubated for 120 mins by LC-MS/MS analysis; format: ADME, cell-based
[35] = Apparent permeability across basolateral side to apical in human Caco-2 cells incubated for 120 mins by LC-MS/MS analysis; format: ADME, cell-based

Cytochrome P450 2D6, sequence (P10635 whole entry): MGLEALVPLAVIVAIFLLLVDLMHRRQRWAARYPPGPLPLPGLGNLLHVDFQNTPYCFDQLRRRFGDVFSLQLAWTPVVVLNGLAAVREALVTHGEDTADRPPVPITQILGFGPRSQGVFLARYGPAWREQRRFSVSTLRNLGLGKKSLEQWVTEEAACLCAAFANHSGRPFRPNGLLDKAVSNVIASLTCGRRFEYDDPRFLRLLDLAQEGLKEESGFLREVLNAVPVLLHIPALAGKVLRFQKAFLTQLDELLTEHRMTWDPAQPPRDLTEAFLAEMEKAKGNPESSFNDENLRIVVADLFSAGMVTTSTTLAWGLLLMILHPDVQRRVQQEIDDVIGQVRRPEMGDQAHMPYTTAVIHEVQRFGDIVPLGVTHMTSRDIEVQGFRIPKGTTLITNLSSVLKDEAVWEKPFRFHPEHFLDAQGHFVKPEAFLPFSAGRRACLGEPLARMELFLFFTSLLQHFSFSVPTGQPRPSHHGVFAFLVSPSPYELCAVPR

SMILES | pIC50 (Cytochrome P450 2D6) | pIC50 [1] | Activity (HCT-116 [2]) | Activity (HCT-116 [3]) | Activity (HCT-116 [4]) | inhibition in vivo at 5 mg/kg (KG-1) [%] | Activity [5] | Activity [6] | Activity [7] | Activity [8] | Activity [9] | Activity [10] | Activity [11] | Activity [12] | Activity [13] | Activity [14] | Activity [15] | Activity [16] | Activity [17] | Activity [18] | further results
Cc1cc(C(=O)Nc2ccc(OC(F)(F)F)cc2)nn1Cc1cccc(N2CCN(C(=O)C3CC3)CC2)c1 | < 5.00 | 5.94 | Dose-Dependent Effect | Dose-Dependent Effect | Active | 61.5 | Non-Toxic | Non-Toxic | Non-Toxic | Non-Toxic | Non-Toxic | Non-Toxic | Non-Toxic | Non-Toxic | Non-Toxic | Non-Toxic | Non-Toxic | Non-Toxic | Non-Toxic | Non-Toxic | Activity [19]: Non-Toxic; Activity [20]: Non-Toxic; Activity [21]: Non-Toxic; Activity [22]: Non-Toxic; Activity [23]: Non-Toxic; Activity [24]: Non-Toxic; Activity [25]: Non-Toxic; Activity [26]: Non-Toxic; Activity [27]: Non-Toxic; Activity [28]: Non-Toxic; Activity [29]: Non-Toxic; Activity [30]: Non-Toxic; Activity [31]: Non-Toxic; Activity [32]: Non-Toxic; Activity [33]: Non-Toxic; Papp A→B at 2 h [34]: 5.74 ×10⁻⁶ cm/s; Papp B→A at 2 h [35]: 3.25 ×10⁻⁶ cm/s
Cc1cc(C(=O)Nc2ccc(C(F)(F)F)cc2)nn1Cc1cccc(N2CCN(C(=O)C3CC3)CC2)c1 | < 5.00 | 6.08 | Dose-Dependent Effect | Dose-Dependent Effect | Active | 65.9 | Non-Toxic | Non-Toxic | Non-Toxic | Non-Toxic | Non-Toxic | Non-Toxic | Non-Toxic | Non-Toxic | Non-Toxic | Non-Toxic | Non-Toxic | Non-Toxic | Non-Toxic | Non-Toxic | Activity [19]: Non-Toxic; Activity [20]: Non-Toxic; Activity [21]: Non-Toxic; Activity [22]: Non-Toxic; Activity [23]: Non-Toxic; Activity [24]: Non-Toxic; Activity [25]: Non-Toxic; Activity [26]: Non-Toxic; Activity [27]: Non-Toxic; Activity [28]: Non-Toxic; Activity [29]: Non-Toxic; Activity [30]: Non-Toxic; Activity [31]: Non-Toxic; Activity [32]: Non-Toxic; Activity [33]: Non-Toxic; Papp A→B at 2 h [34]: 5.83 ×10⁻⁶ cm/s; Papp B→A at 2 h [35]: 3.08 ×10⁻⁶ cm/s
